Earlier results, collected in US20080044439A1, “Compositions and Methods for Preventing and Treating Skin and Hair Conditions” (priority 2004, published 2008).

Tested on: albino guinea pigs

## CC(C)Cn1cnc2c(N)nc3ccccc3c21 [imiquimod]
5 percent cream applied every 6 hours for seven days, evaluated at seven and 28 days after tattoo placement, compared with petrolatum, tretinoin 0.025 percent, tretinoin alternated with imiquimod
  fading the tattoo, macroscopically and histologically: most effective regimen for fading the tattoo
Guinea pig, in vivo
  biopsy evaluation of the treated site: epidermal and dermal necrosis with separation, severe inflammation and fibrosis, and disruption of the skin appendages
